Starred links: 1 amine or outer side, 2 acyl side, 3 side chain; linkers in the order of their positions; H or OH if unused. Non-standard residues stand in square brackets, D forms with d. Residues, ends and D or L forms follow the SMILES beside them. *: point of attachment. Tyr(Me) = O-methyl-tyrosine, COc1ccc(C[C@H](N[*:1])C(=O)[*:2])cc1; Phe(F5) = N[C@@H](Cc1c(F)c(F)c(F)c(F)c1F)C(=O)O; hArg = N=C(N)NCCCC[C@H](N)C(=O)O; 12Ado = NCCCCCCCCCCCC(=O)O; Nle = CCCC[C@H](N)C(=O)O; Orn = NCCC[C@H](N)C(=O)O; Abu = CC[C@H](N)C(=O)O; PhAc = O=C(Cc1ccccc1)*

The text below walks through data of patent US20200276273A1, “METHOD FOR TREATING MYELOID LEUKEMIA” (UNIVERSITY OF MIAMI, priority 2017, published 2020).

For series [1] the following is noted: nude mice, 10 μg B.i.d. s.c. The source says: Eight-weeks-old female athymic nude mice (Hsd: Athymic Nude-Foxn1^nu), obtained from Harlan Laboratories, were housed in sterile cages in a temperature-controlled room with a 12-hours light\12-hours dark schedule. Mice were fed autoclaved chow and water ad libitum. Human myelogenous leukemia cells KG-1, KG-1a, K-562 and THP-1 were used in log phase of growth. Xenografts were initiated by subcutaneous (s.c.) injection of 1×10^7 cells into the right flank of nude mice. For each cell line, once tumor reached an appropriate size (approx. 40 mm3), mice were randomly divided into two groups of 15 animals each, which received s.c. injections twice a day into the left flank of, phosphate-buffered saline (PBS) ([…] containing 0.1% DMSO, or MIA-602 at a dose of 10 μg. […] At the end of the experiment, mice were sacrificed under carbon dioxide followed by cervical dislocation. All animal procedures were performed in compliance with the Guide for the Care and Use of Laboratory Animals published by the NIH, and approved by the Animal Care and Use Committee of the University of Miami.

Another series has as its system KG-1 cells. The experiment in a line: Cellular uptake of fluorescently labeled MIA-602. The following applies: 2.5 μM Alexa Fluor 555 labelled peptide, 30 minutes.
In the next series the test system is pituitary. The settings on record: biological activity on the pituitary; cited from earlier work.
Series [2] addresses GHRH splice variant 1 receptor (human).
Series [3] shares this target. This is another data set of the same source.
Series [4] has the same target. The source holds these as a separate data set.
The mark [5] stands for this setting: 30 days, treated animals vs those bearing no tumors.

Experimental for KG-1 cells: For the detection of cellular uptake, MIA-602 was conjugated to Alexa Fluor 555 according to the manufacturer's instructions (Alexa Fluor 555 NHS ester, tris(triethylammonium salt, Life Technologies, Carlsbad, Calif.). Cells were incubated with 2.5 μM fluorescently labelled peptide or unconjugated fluorophore for 30 minutes (1×10^6 cells/tube). At the end of incubation, cells were washed 3 times in PBS, fixed in 4% paraformaldehyde, mounted, and imaged as described above. ImageJ software (NIH, Bethesda, Md.) was used to recolor the images, for the purpose of enhancing visual perception of cellular uptake.

Take `CCCC[C@H](NC(=O)[C@@H](NC(=O)[C@H](CC(=O)O)NC(=O)[C@H](CCC(N)=O)NC(=O)[C@H](CC(C)C)NC(=O)[C@H](CC(C)C)NC(=O)[C@H](CCCN)NC(=O)[C@H](Cc1c[nH]cn1)NC(=O)[C@H](C)NC(=O)[C@H](CO)NC(=O)[C@H](CC(C)C)NC(=O)[C@H](CCC(N)=O)NC(=O)[C@H](CC)NC(=O)[C@H](CC(C)C)NC(=O)[C@@H](NC(=O)[C@H](CCCN)NC(=O)[C@H](Cc1c[nH]cn1)NC(=O)[C@H](Cc1ccc(OC)cc1)NC(=O)[C@H](CCCCNC(=N)N)NC(=O)[C@H](C)NC(=O)[C@@H](NC(=O)[C@H](Cc1c(F)c(F)c(F)c(F)c1F)NC(=O)[C@@H](NC(=O)[C@H](C)NC(=O)[C@H](CC(=O)O)NC(=O)[C@@H](CCCNC(=N)N)NC(=O)[C@H](Cc1ccc(O)cc1)NC(=O)CCCCCCCCCCCNC(=O)Cc1ccccc1)[C@@H](C)CC)[C@@H](C)O)C(C)C)[C@@H](C)CC)C(=O)N[C@H](CCCNC(=N)N)C(=O)N[C@@H](CCCCNC(=N)N)C(N)=O` [MIA-602, [PhAc-Ada^0-Tyr^1, D-Arg^2, Fpa5^6, Ala^8, Har^9, Tyr(Me)^10, His^11, Orn^12, Abu^15, His^20, Orn^21, Nle^27, D-Arg^28, Har^29]hGH-RH(1-29)NH2] ({PhAc-12Ado}-Y[dR]DAI[Phe(F5)]TA[hArg]Y(Me)H[Orn]VL[Abu]QLSAH[Orn]LLQDI[Nle][dR][hArg]-NH2): in series [1] (setting [5]), the body weights result is listed as “No significant differences”; the “weights of various organs (liver, spleen, and kidneys)” value is “No significant differences”. The “macroscopic observation of organs” value in series [1] (after treatment) was “no differences”.
Consider “fluorescently labeled MIA-602: MIA-602 conjugated to Alexa Fluor 555 for the detection of cellular uptake ({PhAc-12Ado}-Y[dR]DAI[Phe(F5)]TA[hArg][Tyr(Me)]H[Orn]VL[Abu]QLSAH[Orn]LLQDI[Nle][dR][hArg]-NH2; also: Alexa Fluor 555 conjugated via NHS ester, site not given here)”, for which the cellular uptake entry in the series on KG-1 cells is “not observed”.
Take “Tyr-Ala-Asp-Ala-Ile^5-Phe-Thr-Asn-Ser-Tyr^10-Arg-Lys-Val-Leu-Gly^15-Gln-Leu-Ser-Ala-Arg^20-Lys-Leu-Leu-Gln-Asp^25-Ile-Met-Ser-Arg^29-NH2 [GHRH(1-29)]”: in the series with pituitary, the “potency retained relative to native GHRH” value is recorded as no less than 50%.
{PhAc-12Ado}-Y[dR]DAI[Phe(F5)]TA[hArg][Tyr(Me)]H[Orn]VL[Abu]QLSAH[Orn]LLQDI[Nle][dR][hArg]-NH2 came in with a reduction in cell proliferation (cell count, 5 µM MIA-602, 24 and 48 hours) in series [2] of 80%. This molecule also displayed a fold-change in expression of cell death-related genes (qPCR array, 24 h MIA-602) in series [3] of 28.9 fold. The decrease of phosphorylation of Akt (Western blot, 8 h incubation with MIA-602) in series [4] came to 85%.
